Test results reported in US20240415819A1, “MACROCYCLIC COMPOUNDS AS PROTEASOME SUBUNIT BETA TYPE-5 INHIBITORS” (Lead Discovery Center GmbH, priority 2021, published 2024).

Legend:
[1] = molecular target: T1, β5 subunit of the human immunoproteasome (IPS) (Homo sapiens, UniProt P28062); assay: β5 inhibition assay, human immunoproteasome (Suc-LLVY-AMC); format: biochemical; settings: IC50 class, Suc-LLVY-AMC substrate
T1 construct: purchased Boston Biochem E-370
Procedure, shortened: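 Human immunoproteasome (1 nM final) was preincubated 10 min at RT with compound in 100 mM HEPES pH 7.5, 50 mM NaCl, 0.02% SDS, 1 mM DTT. Suc-LLVY-AMC (22.6 μM final) was then added for 4 h at RT in the dark. After stopping with 1 μM bortezomib, AMC fluorescence was read (ex 355/em 460 nm).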

[2] = system: A549 (human lung carcinoma cell line); assay: Glo assay of A549 cells (Table 3; ProteasomeGlo plating scheme); format: cell-based; settings: Homo sapiens; A549 cells; read-out: PGLo A549
Procedure, shortened: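 Luminescent read-out of cellular chymotrypsin-like proteasome activity: cells exposed to compound 105 min at 37° C., 5% CO2, then given Suc-LLVY-Glo reagent, shaken 2-5 min and kept dark 10-15 min before reading. Values are IC50 [nM].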

[3] = molecular target: T2, β5 subunit of the human constitutive proteasome (CPS) (Homo sapiens, UniProt P28074); assay: β5 inhibition assay, human constitutive proteasome (Suc-LLVY-AMC); format: biochemical; settings: IC50 class, Suc-LLVY-AMC substrate
T2 construct: purchased Boston Biochem E-360
Experimental: The enzymatic activity of the β5 subunit of the human constitutive proteasome (CPS) is analyzed. In another assay, which differs from the assay of the human constitutive proteasome only in using the human immunoproteasome (IPS) the enzymatic activity of the β5 subunit of the human immunoproteasome (IPS) is analyzed. […] Inhibition is indicated as IC50 [nM] (“-”=not measured).

[4] = system: Hs 746T (human gastric carcinoma cell line); assay: 48 hr CTG viability assay, Hs 746T; format: cell-based; settings: Hs746T, 48 hr CTG, read-out: Hs 746T IC50
Procedure, shortened: (§1)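 Growth inhibition by compound over 48 h; IC50 (nM) derived from duplicate CellTiter-Glo luminescence readings across 0.0015–10 uM.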

[5] = system: MM1 S (B lymphoblast cell line); assay: 48 hr CTG viability assay, MM1S; format: cell-based; settings: Homo sapiens, 48 hr CTG, read-out: MM1S IC50
Procedure, shortened: as §1

[6] = system: RPMI 8226 (B lymphocyte cell line, multiple myeloma); assay: 48 hr CTG viability assay, RPMI 8226; format: cell-based; settings: Homo sapiens, RPMI-8226; 48 hr CTG; read-out: RPMI-8226 IC50
Procedure, shortened: as §1

Structure (SMILES) | IC50 [1] | IC50 [2] | IC50 [3] | IC50 [4] | IC50 [5] | IC50 [6]
Cc1ccc2cc1CNC(=O)[C@H](CCc1ccccc1)NC(=O)[C@@H](NC(=O)N1CCc3cnccc31)CC(=O)N1CCCC(CCO2)C1 (stereo partly drawn) [Compound 703, N-((9S,12S)-5^4-methyl-8,11,14-trioxo-9-phenethyl-4-oxa-7,10-diaza-1(3,1)-piperidina-5(1,3)-benzenacyclotetradecaphane-12-yl)-2,3-dihydro-1H-pyrrolo[3,2-c]pyridine-1-carboxamide] | < 100 nM | < 100 nM | < 100 nM | < 100 nM | < 100 nM | < 100 nM
Cc1ccc2cc1CNC(=O)[C@H](CCc1ccccc1)NC(=O)[C@@H](NC(=O)N1CCc3cc(O)ccc31)CC(=O)N1CCCC(CCO2)C1 (stereo partly drawn) [Compound 705, 5-hydroxy-N-((9S,12S)-5^4-methyl-8,11,14-trioxo-9-phenethyl-4-oxa-7,10-diaza-1(3,1)-piperidina-5(1,3)-benzenacyclotetradecaphane-12-yl)indoline-1-carboxamide] | < 100 nM | < 100 nM | < 100 nM | < 100 nM | < 100 nM | < 100 nM
Cc1ccc2cc1CNC(=O)[C@H](CCc1ccccc1)NC(=O)[C@@H](NC(=O)CCNCc1ccc(OCC3CCCCC3)cc1)CC(=O)N1CCCC(CCO2)C1 (stereo partly drawn) [Compound 706, 3-((4-(cyclohexylmethoxy)benzyl)amino)-N-((9S,12S)-5^4-methyl-8,11,14-trioxo-9-phenethyl-4-oxa-7,10-diaza-1(3,1)-piperidina-5(1,3)-benzenacyclotetradecaphane-12-yl)propanamide] | < 100 nM | < 100 nM | < 100 nM | < 100 nM | < 100 nM | < 100 nM
CC(=O)c1ccc(CC(=O)N[C@H]2CCC(=O)NCCCCOc3ccc(C)c(c3)CNC(=O)[C@H](CCc3ccccc3)NC2=O)cc1 [Compound 707, 2-(4-acetylphenyl)-N-((11S,14S)-1^4-methyl-8,12,15-trioxo-1^4-phenethyl-2-oxa-7,13,16-triaza-1(1,3)-benzenacycloheptadecaphane-11-yl)acetamide] | < 100 nM | < 100 nM | < 100 nM | < 100 nM | < 100 nM | < 100 nM
Cc1ccc2cc1CNC(=O)[C@H](CCc1ccc(N)cc1)NC(=O)[C@@H](NC(=O)Cc1cn3ccsc3n1)CC(=O)N1CCCC(CCO2)C1 (stereo partly drawn) [Compound 708, N-((9S,12S)-9-(4-aminophenethyl)-5^4-methyl-8,11,14-trioxo-4-oxa-7,10-diaza-1(3,1)-piperidina-5(1,3)-benzenacyclotetradecaphane-12-yl)-2-(imidazo[2,1-b]thiazol-6-yl)acetamide] | < 100 nM | < 100 nM | < 100 nM | < 100 nM | < 100 nM | < 100 nM
Cc1ccc2cc1CNC(=O)[C@H](CCc1ccccc1)NC(=O)[C@@H](NCC(F)(F)F)CC(=O)N1CCCC(CCO2)C1 (stereo partly drawn) [Compound 709, (9S,12S)-5^4-methyl-9-phenethyl-12-((2,2,2-trifluoroethyl)amino)-4-oxa-7,10-diaza-1(3,1)-piperidina-5(1,3)-benzenacyclotetradecaphane-8,11,14-trione] | < 100 nM | < 100 nM | < 100 nM | 100 to 500 nM | < 100 nM | < 100 nM
Cc1ccc2cc1CNC(=O)[C@H](CCc1ccccc1)NC(=O)[C@@H](NC(=O)CCOC1CC3(C1)CN(C)C3)CC(=O)N1CCCC(CCO2)C1 (stereo partly drawn) [Compound 710, 3-((2-methyl-2-azaspiro[3.3]heptan-6-yl)oxy)-N-((9S,12S)-5^4-methyl-8,11,14-trioxo-9-phenethyl-4-oxa-7,10-diaza-1(3,1)-piperidina-5(1,3)-benzenacyclotetradecaphane-12-yl)propanamide] | < 100 nM | < 100 nM | < 100 nM | < 100 nM | < 100 nM | < 100 nM
Cc1ccc2cc1CNC(=O)[C@H](CCc1ccccc1)NC(=O)[C@@H](NC1CC3C=CC1C3)CC(=O)N1CCCC(CCO2)C1 (stereo partly drawn) [Compound 711, (9S,12S)-12-(bicyclo[2.2.1]hept-5-en-2-ylamino)-5^4-methyl-9-phenethyl-4-oxa-7,10-diaza-1(3,1)-piperidina-5(1,3)-benzenacyclotetradecaphane-8,11,14-trione] | < 100 nM | 100 to 500 nM | < 100 nM | 100 to 500 nM | < 100 nM | < 100 nM
Cc1ccc2cc1CNC(=O)[C@H](CCc1ccccc1)NC(=O)[C@@H](NC1CC3CCC1C3)CC(=O)N1CCCC(CCO2)C1 (stereo partly drawn) [Compound 712, (9S,12S)-12-(bicyclo[2.2.1]heptan-2-ylamino)-5^4-methyl-9-phenethyl-4-oxa-7,10-diaza-1(3,1)-piperidina-5(1,3)-benzenacyclotetradecaphane-8,11,14-trione] | < 100 nM | < 100 nM | < 100 nM | 100 to 500 nM | < 100 nM | < 100 nM
Cc1ccc2cc1CNC(=O)[C@H](CCc1ccccc1)NC(=O)[C@@H](NC(=O)C1CC3CCC(C1)N3C)CC(=O)N1CCCC(CCO2)C1 (stereo partly drawn) [Compound 713, 8-methyl-N-((9S,12S)-5^4-methyl-8,11,14-trioxo-9-phenethyl-4-oxa-7,10-diaza-1(3,1)-piperidina-5(1,3)-benzenacyclotetradecaphane-12-yl)-8-azabicyclo[3.2.1]octane-3-carboxamide] | < 100 nM | < 100 nM | < 100 nM | 100 to 500 nM | < 100 nM | < 100 nM
Cc1ccc2cc1CNC(=O)[C@H](CCc1ccccc1)NC(=O)[C@@H](NC(=O)C1CC3(C1)CN(C)C3)CC(=O)N1CCCC(CCO2)C1 (stereo partly drawn) [Compound 714, 2-methyl-N-((9S,12S)-5^4-methyl-8,11,14-trioxo-9-phenethyl-4-oxa-7,10-diaza-1(3,1)-piperidina-5(1,3)-benzenacyclotetradecaphane-12-yl)-2-azaspiro[3.3]heptane-6-carboxamide] | < 100 nM | < 100 nM | < 100 nM | 100 to 500 nM | 100 to 500 nM | < 100 nM
Cc1ccc2cc1CNC(=O)[C@H](CCc1ccccc1)NC(=O)[C@@H](NC(=O)C1(C)CNC1)CC(=O)N1CCCC(CCO2)C1 (stereo partly drawn) [Compound 715, 3-methyl-N-((9S,12S)-5^4-methyl-8,11,14-trioxo-9-phenethyl-4-oxa-7,10-diaza-1(3,1)-piperidina-5(1,3)-benzenacyclotetradecaphane-12-yl)azetidine-3-carboxamide] | < 100 nM | < 100 nM | < 100 nM | 100 to 500 nM | < 100 nM | < 100 nM
Cc1ccc2cc1CNC(=O)[C@H](CCc1ccccc1)NC(=O)[C@@H](NC(=O)N1CCNCC1)CC(=O)N1CCCC(CCO2)C1 (stereo partly drawn) [Compound 716, N-((9S,12S)-5^4-methyl-8,11,14-trioxo-9-phenethyl-4-oxa-7,10-diaza-1(3,1)-piperidina-5(1,3)-benzenacyclotetradecaphane-12-yl)piperazine-1-carboxamide] | < 100 nM | < 100 nM | < 100 nM | 100 to 500 nM | < 100 nM | < 100 nM
Cc1ccc2cc1CNC(=O)[C@H](CCc1ccccc1)NC(=O)[C@@H](NC1CCC1)CC(=O)N1CCCC(CCO2)C1 (stereo partly drawn) [Compound 717, (9S,12S)-12-(cyclobutylamino)-5^4-methyl-9-phenethyl-4-oxa-7,10-diaza-1(3,1)-piperidina-5(1,3)-benzenacyclotetradecaphane-8,11,14-trione] | < 100 nM | < 100 nM | < 100 nM | 100 to 500 nM | 100 to 500 nM | 100 to 500 nM
Cc1ccc2cc1CNC(=O)[C@H](CCc1ccccc1)NC(=O)[C@@H](NC(=O)Cc1ccc(N)cc1C)CCCC(=O)NCCCCO2 [Compound 718, 2-(4-amino-2-methylphenyl)-N-((12S,15S)-1^4-methyl-8,13,16-trioxo-15-phenethyl-2-oxa-7,14,17-triaza-1(1,3)-benzenacyclooctadecaphane-12-yl)acetamide] | < 100 nM | < 100 nM | < 100 nM | 100 to 500 nM | < 100 nM | 100 to 500 nM
Cc1ccc2cc1CNC(=O)[C@H](CCc1ccccc1)NC(=O)[C@@H](NC(=O)[C@@H](N)CC(=O)O)CC(=O)N1CCCC(CCO2)C1 (stereo partly drawn) [Compound 719, (3S)-3-amino-4-(((9S,12S)-5^4-methyl-8,11,14-trioxo-9-phenethyl-4-oxa-7,10-diaza-1(3,1)-piperidina-5(1,3)-benzenacyclotetradecaphane-12-yl)amino)-4-oxobutanoic acid] | < 100 nM | < 100 nM | < 100 nM | 500 to 1000 nM | 100 to 500 nM | 100 to 500 nM
